Data from patent US12384797B2, “Thioeno[3,2-b] pyridin-7-amine compounds for treating familial dysautonomia” (PTC THERAPEUTICS, INC., priority 2019, dated 2025).

These compounds were tested on Elongator complex protein 1 (ELP1, also referred to as IKBKAP) (assay: IKBKAP-HTRF assay (IKBKAP protein in lysates of FD patient-derived fibroblasts)). Conditions: 48 hours incubation, 7-point concentration curve.
Format: cell-based, human
Summary of the method: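 Sandwich HTRF with two labelled anti-IKAP antibodies (overnight, 4 °C) measured IKBKAP in lysates of FD patient fibroblasts. Cells were exposed to compound for 48 h at 37 °C (7-point curve, 3.16-fold steps, triplicates). EC2x is the dose doubling IKBKAP versus DMSO control; MFI is sample ΔF divided by vehicle ΔF.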

| SMILES | EC2x for IKBKAP protein expression (concentration producing two times the amount of IKBKAP protein vs DMSO vehicle control) | MFI (maximum fold increase in IKBKAP protein abundance relative to the vehicle control) |
| --- | --- | --- |
| CNCc1sc2c(NCc3ccco3)cc(Cl)nc2c1C [Compound 27, 5-chloro-N-[(furan-2-yl)methyl]-3-methyl-2-[(methylamino)methyl]thieno[3,2-b]pyridin-7-amine] | *** (between >0.02 μM and ≤0.5 μM is indicated by three stars (***)) | **** (between >3.9 and ≤4.9 is indicated by four stars (****)) |
| C[C@H](N)Cc1sc2c(NCc3cccs3)cc(C#N)nc2c1Br [Compound 101, 2-[(2S)-2-aminopropyl]-3-bromo-7-{[(thiophen-2-yl)methyl]amino}thieno[3,2-b]pyridine-5-carbonitrile] | ***** (≤0.005 μM is indicated by five stars (*****)) | ***** (>4.9 is indicated by five stars (*****)) |
| C[C@H](N)Cc1cc2nc(Cl)cc(NCc3ccco3)c2s1 [Compound 16, 2-[(2S)-2-aminopropyl]-5-chloro-N-[(furan-2-yl)methyl]thieno[3,2-b]pyridin-7-amine] | ***** (≤0.005 μM is indicated by five stars (*****)) | **** (between >3.9 and ≤4.9 is indicated by four stars (****)) |
| Cc1c(C[C@@H](N)C(=O)Nc2ccncc2)sc2c(NCc3ccco3)cc(Cl)nc12 [Compound 140, 3-(5-chloro-7-{[(furan-2-yl)methyl]amino}-3-methylthieno[3,2-b]pyridin-2-yl)-N-pyridin-4-yl-D-alaninamide] | ***** (≤0.005 μM is indicated by five stars (*****)) | ***** (>4.9 is indicated by five stars (*****)) |
| Cc1c([C@@H](C)N)sc2c(NCc3ccco3)cc(Cl)nc12 [Compound 22, 2-[(1R)-1-aminoethyl]-5-chloro-N-[(furan-2-yl)methyl]-3-methylthieno[3,2-b]pyridin-7-amine] | * (An EC2x>1 μM is indicated by one star (*)) | ** (between >1.9 and ≤2.9 is indicated by two stars (**)) |
| N[C@H](CF)Cc1sc2c(NCc3nccs3)cc(Cl)nc2c1Cl [Compound 67, 2-[(2S)-2-amino-3-fluoropropyl]-3,5-dichloro-N-[(1,3-thiazol-2-yl)methyl]thieno[3,2-b]pyridin-7-amine] | * (An EC2x>1 μM is indicated by one star (*)) | * (An MFI≤1.9 is indicated by one star (*)) |
| C[C@H](N)C(F)c1sc2c(NCc3ccco3)cc(Cl)nc2c1Br (stereo partly drawn) [Compound 154, 2-[(2S)-2-amino-1-fluoropropyl]-3-bromo-5-chloro-N-[(furan-2-yl)methyl]thieno[3,2-b]pyridin-7-amine] | ***** (≤0.005 μM is indicated by five stars (*****)) | **** (between >3.9 and ≤4.9 is indicated by four stars (****)) |
| N[C@@H](CO)Cc1sc2c(NCc3nccs3)cc(Cl)nc2c1Br [Compound 71, (2R)-2-amino-3-(3-bromo-5-chloro-7-{[(1,3-thiazol-2-yl)methyl]amino}thieno[3,2-b]pyridin-2-yl)propan-1-ol] | ***** (≤0.005 μM is indicated by five stars (*****)) | ***** (>4.9 is indicated by five stars (*****)) |
| CC[C@H](N)Cc1sc2c(NCc3cccs3)cc(Cl)nc2c1Br [Compound 73, 2-[(2S)-2-aminobutyl]-3-bromo-5-chloro-N-[(thiophen-2-yl)methyl]thieno[3,2-b]pyridin-7-amine] | ***** (≤0.005 μM is indicated by five stars (*****)) | ***** (>4.9 is indicated by five stars (*****)) |
| N[C@H](Cc1sc2c(NCc3ccco3)cc(Cl)nc2c1Cl)C(=O)Nc1ccccc1F [Compound 120, 3-(3,5-dichloro-7-{[(furan-2-yl)methyl]amino}thieno[3,2-b]pyridin-2-yl)-N-(2-fluorophenyl)-D-alaninamide] | **** (between >0.005 μM and ≤0.02 μM is indicated by four stars (****)) | **** (between >3.9 and ≤4.9 is indicated by four stars (****)) |
| N[C@@H](CCO)Cc1sc2c(NCc3ccccc3F)cc(Cl)nc2c1Br [Compound 100, (3S)-3-amino-4-(3-bromo-5-chloro-7-{[(2-fluorophenyl)methyl]amino}thieno[3,2-b]pyridin-2-yl)butan-1-ol] | ***** (≤0.005 μM is indicated by five stars (*****)) | ***** (>4.9 is indicated by five stars (*****)) |
| Cc1c(C[C@@H](N)C(=O)Nc2ccccn2)sc2c(NCc3ccco3)cc(Cl)nc12 [Compound 134, 3-(5-chloro-7-{[(furan-2-yl)methyl]amino}-3-methylthieno[3,2-b]pyridin-2-yl)-N-pyridin-2-yl-D-alaninamide] | **** (between >0.005 μM and ≤0.02 μM is indicated by four stars (****)) | ***** (>4.9 is indicated by five stars (*****)) |
| Clc1cc(NCc2nccs2)c2scc(Br)c2n1 [Compound 9, 3-bromo-5-chloro-N-[(1,3-thiazol-2-yl)methyl]thieno[3,2-b]pyridin-7-amine] | *** (between >0.02 μM and ≤0.5 μM is indicated by three stars (***)) | ***** (>4.9 is indicated by five stars (*****)) |
| CC(C)C[C@H](N)Cc1sc2c(NCc3nccs3)cc(Cl)nc2c1Cl [Compound 79, 2-[(2S)-2-amino-4-methylpentyl]-3,5-dichloro-N-[(1,3-thiazol-2-yl)methyl]thieno[3,2-b]pyridin-7-amine] | ***** (≤0.005 μM is indicated by five stars (*****)) | ***** (>4.9 is indicated by five stars (*****)) |
| Cc1c(C[C@@H](N)CC(C)C)sc2c(NCc3nccs3)cc(Cl)nc12 [Compound 68, 2-[(2S)-2-amino-4-methylpentyl]-5-chloro-3-methyl-N-[(1,3-thiazol-2-yl)methyl]thieno[3,2-b]pyridin-7-amine] | **** (between >0.005 μM and ≤0.02 μM is indicated by four stars (****)) | ***** (>4.9 is indicated by five stars (*****)) |
| N[C@@H](CO)Cc1cc2nc(Cl)cc(NCc3ccco3)c2s1 [Compound 17, (2R)-2-amino-3-(5-chloro-7-{[(furan-2-yl)methyl]amino}thieno[3,2-b]pyridin-2-yl)propan-1-ol] | ***** (≤0.005 μM is indicated by five stars (*****)) | **** (between >3.9 and ≤4.9 is indicated by four stars (****)) |
| C[C@H](N)Cc1sc2c(NCc3cccs3)cc(Cl)nc2c1Cl [Compound 52, 2-[(2S)-2-aminopropyl]-3,5-dichloro-N-[(thiophen-2-yl)methyl]thieno[3,2-b]pyridin-7-amine] | ***** (≤0.005 μM is indicated by five stars (*****)) | ***** (>4.9 is indicated by five stars (*****)) |
| Cc1c(C[C@@H](N)[C@H](C)F)sc2c(NCc3nccs3)cc(Cl)nc12 [Compound 128, 2-[(2R,3S)-2-amino-3-fluorobutyl]-5-chloro-3-methyl-N-[(1,3-thiazol-2-yl)methyl]thieno[3,2-b]pyridin-7-amine] | ***** (≤0.005 μM is indicated by five stars (*****)) | ***** (>4.9 is indicated by five stars (*****)) |
| C[C@H](N)Cc1sc2c(NCc3nccs3)cc(Cl)nc2c1C1CC1 [Compound 96, 2-[(2S)-2-aminopropyl]-5-chloro-3-cyclopropyl-N-[(1,3-thiazol-2-yl)methyl]thieno[3,2-b]pyridin-7-amine] | **** (between >0.005 μM and ≤0.02 μM is indicated by four stars (****)) | ***** (>4.9 is indicated by five stars (*****)) |
| CC[C@H](N)Cc1sc2c(NCc3cccs3)cc(Cl)nc2c1Cl [Compound 83, 2-[(2S)-2-aminobutyl]-3,5-dichloro-N-[(thiophen-2-yl)methyl]thieno[3,2-b]pyridin-7-amine] | ***** (≤0.005 μM is indicated by five stars (*****)) | ***** (>4.9 is indicated by five stars (*****)) |
| COC[C@H](N)Cc1sc2c(NCc3ccco3)cc(Cl)nc2c1C [Compound 45, 2-[(2R)-2-amino-3-methoxypropyl]-5-chloro-N-[(furan-2-yl)methyl]-3-methylthieno[3,2-b]pyridin-7-amine] | ***** (≤0.005 μM is indicated by five stars (*****)) | ***** (>4.9 is indicated by five stars (*****)) |
| C[C@H](N)c1cc2nc(Cl)cc(NCc3ccco3)c2s1 [Compound 24, 2-[(1S)-1-aminoethyl]-5-chloro-N-[(furan-2-yl)methyl]thieno[3,2-b]pyridin-7-amine] | * (An EC2x>1 μM is indicated by one star (*)) | ** (between >1.9 and ≤2.9 is indicated by two stars (**)) |
